The values that follow come from ChEMBL document CHEMBL3351906, “Bioactive triterpenoid saponins and phenolic compounds against glioma cells” (Bioorg Med Chem Lett, 2014).

In experiment [1] the test system is C6. Description: Inhibition of cell proliferation of rat C6 cells assessed as cell viability after 72 hrs by sulforhodamine B assay. The format is functional, cell-based. To be noted: C6, 72 h.
For experiment [2], the system named is U-251. Briefly: Inhibition of cell proliferation of human U251 cells assessed as cell viability at 100 uM after 72 hrs by sulforhodamine B assay. The format is functional. To be noted: U-251, 72 h, read-out: Activity. (The SRB assay estimates cell density from bound dye.)
Experiment [3] concerns U-251. Description: Inhibition of cell proliferation of human U251 cells assessed as cell viability after 72 hrs by sulforhodamine B assay. It counts as functional, cell-based. Particulars: U-251, 72 h.
Experiment [4] has as its system C6. Briefly: Inhibition of cell proliferation of rat C6 cells assessed as cell viability at 100 uM after 72 hrs by sulforhodamine B assay. The format is functional. Particulars: C6, 72 h, read-out: Activity.

The term IC50 denotes the concentration at which inhibition is half-maximal. As to `CC(=O)Oc1ccc(CCOC(=O)CCc2ccc(OC(C)=O)c(OC(C)=O)c2)cc1OC(C)=O`, the IC50 in the experiment on C6 [1] was 12.8 µM; in the experiment with U-251 [3] it was 37.2 µM. In addition, the viability at 100 µM in the experiment on U-251 [2] was found to be 43.5%.
With `C/C=C(\C)C(=O)O[C@H]1[C@H](O)[C@]2(COC(C)=O)[C@H](O)C[C@]3(C)C(=CC[C@@H]4[C@@]5(C)CC[C@H](O[C@@H]6O[C@H](C(=O)OC)[C@@H](O[C@@H]7O[C@H](CO)[C@@H](O)[C@H](O)[C@H]7O)[C@H](O)[C@H]6O[C@@H]6O[C@H](CO)[C@@H](O)[C@H](O)[C@H]6O)[C@](C)(CO)[C@@H]5CC[C@]43C)[C@@H]2CC1(C)C`, the IC50 came to 60.7 µM in the experiment with C6 [1] and 48.4 µM in the experiment with U-251 [3]. The viability at 100 µM with U-251 [2] turned out to be 26.2%.
Consider `CC(C)=CCC[C@](C)(O[C@@H]1O[C@H](CO)[C@@H](O)[C@H](O)[C@H]1O)[C@H]1CC[C@]2(C)[C@@H]1[C@H](O)C[C@@H]1[C@@]3(C)CC[C@H](O[C@@H]4O[C@H](CO)[C@@H](O)[C@H](O)[C@H]4O[C@@H]4O[C@H](CO)[C@@H](O)[C@H](O)[C@H]4O)C(C)(C)[C@@H]3CC[C@]12C` [GINSENOSIDE RD], for which the viability at 100 µM in the experiment with U-251 [2] turned out to be 78.4%; with C6 [4], 102%.
As for `O=C(/C=C/c1ccc(O)c(O)c1)O[C@@H]1C[C@](O)(C(=O)O)C[C@@H](O)[C@H]1O` [CHLOROGENIC ACID], the results for the viability at 100 µM in the experiment on U-251 [2] and in the experiment with C6 [4] were 56.6% and 77.4%, respectively.
For `O=C(CCc1ccc(O)c(O)c1)OCCc1ccc(O)c(O)c1`, the IC50 with C6 [1] was 6.16 µM; with U-251 [3], 24.3 µM. Besides, the viability at 100 µM in the experiment with U-251 [2] was 55%.
On to `CC(C)=CC/C=C(/C)[C@H]1CC[C@]2(C)[C@@H]1[C@H](O)C[C@@H]1[C@@]3(C)CC[C@H](O)C(C)(C)[C@@H]3[C@@H](O)C[C@]12C`, for which the values for the viability at 100 µM with U-251 [2] and with C6 [4] were 92.7% and 75.6%, respectively.
The corresponding values for `O=C(O)[C@H]1O[C@@H](Oc2cc3oc(-c4ccccc4)cc(=O)c3c(O)c2O)[C@H](O)[C@@H](O)[C@@H]1O` [BAICALIN] are 91.8% and 80.4%.
Regarding `C=C[C@@](C)(O)CC/C=C(\CO)C(=O)OC[C@H]1O[C@@H](OC(=O)[C@]23CCC(C)(C)C[C@H]2C2=CC[C@@H]4[C@@]5(C)CC[C@H](O[C@@H]6O[C@H](CO[C@@H]7OC[C@H](O)[C@H](O)[C@H]7O[C@@H]7OC[C@@H](O)[C@H](O)[C@H]7O)[C@@H](O)[C@H](O)[C@H]6O)C(C)(C)[C@@H]5CC[C@@]4(C)[C@]2(C)C[C@H]3O)[C@H](O[C@@H]2O[C@@H](C)[C@H](O[C@@H]3OC[C@@H](O)[C@H](O[C@@H]4OC[C@@H](O)[C@H](O)[C@H]4O)[C@H]3O)[C@@H](O)[C@H]2O[C@@H]2O[C@H](CO)[C@H](O)[C@H](O)[C@H]2O)[C@@H](O)[C@@H]1O`, the IC50 with C6 [1] turned out to be 18.1 µM; in the experiment with U-251 [3] it was 19.2 µM. Further, the viability at 100 µM in the experiment on U-251 [2] was found to be 28.6%.
With `CC(C)=CCC[C@](C)(O[C@@H]1O[C@H](CO[C@@H]2O[C@H](CO)[C@@H](O)[C@H](O)[C@H]2O)[C@@H](O)[C@H](O)[C@H]1O)[C@H]1CC[C@]2(C)[C@@H]1[C@H](O)C[C@@H]1[C@@]3(C)CC[C@H](O[C@@H]4O[C@H](CO)[C@@H](O)[C@H](O)[C@H]4O[C@@H]4O[C@H](CO)[C@@H](O)[C@H](O)[C@H]4O)C(C)(C)[C@@H]3CC[C@]12C` [GINSENOSIDE RB1], the viability at 100 µM in the experiment on U-251 [2] amounted to 76.1%; in the experiment with C6 [4], 79%.
The corresponding values for `CC(C)=CCC[C@](C)(O[C@@H]1O[C@H](CO[C@@H]2O[C@H](CO)[C@@H](O)[C@H](O)[C@H]2O)[C@@H](O)[C@H](O)[C@H]1O)[C@H]1CC[C@]2(C)[C@@H]1[C@H](O)C[C@@H]1[C@@]3(C)CC[C@H](O[C@@H]4O[C@H](CO)[C@@H](O)[C@H](O)[C@H]4O)C(C)(C)[C@@H]3CC[C@]12C` [GYPENOSIDE XVII] are 86.5% and 80.8%.
The like results for `CC(C)=CCC[C@](C)(O[C@@H]1O[C@H](CO[C@@H]2O[C@@H](CO)[C@H](O)[C@H]2O)[C@@H](O)[C@H](O)[C@H]1O)[C@H]1CC[C@]2(C)[C@@H]1[C@H](O)C[C@@H]1[C@@]3(C)CC[C@H](O[C@@H]4O[C@H](CO)[C@@H](O)[C@H](O)[C@H]4O[C@@H]4O[C@H](CO)[C@@H](O)[C@H](O)[C@H]4O)C(C)(C)[C@@H]3CC[C@]12C` [GINSENOSIDE RC] were, in that order, 87.7% and 79%.
The corresponding values for `CC(C)=CCC[C@](C)(O)[C@H]1CC[C@]2(C)[C@@H]1[C@H](O)C[C@@H]1[C@@]3(C)CC[C@H](O)C(C)(C)[C@@H]3[C@@H](O[C@@H]3O[C@H](CO)[C@@H](O)[C@H](O)[C@H]3O[C@@H]3OC[C@@H](O)[C@H](O)[C@H]3O)C[C@]12C` are 108% and 59.3%.
Consider `CC(C)=CCC[C@@](C)(O)[C@H]1CC[C@]2(C)[C@@H]1[C@H](O)C[C@@H]1[C@@]3(C)CC[C@H](O)C(C)(C)[C@@H]3[C@@H](O[C@@H]3O[C@H](CO)[C@@H](O)[C@H](O)[C@H]3O[C@@H]3O[C@@H](C)[C@H](O)[C@@H](O)[C@H]3O)C[C@]12C`, for which the viability at 100 µM worked out at 99% in the experiment with U-251 [2] and 95.5% with C6 [4].
The like results for `O=C(/C=C/c1ccc(O)c(O)c1)O[C@H](Cc1ccc(O)c(O)c1)C(=O)O` [ROSMARINIC ACID] were, in that order, 70.8% and 54.5%.
The like results for `CC(C)=CCC[C@](C)(O[C@@H]1O[C@H](CO[C@H]2O[C@H](CO)[C@@H](O)[C@@H]2O)[C@@H](O)[C@H](O)[C@H]1O)[C@H]1CC[C@]2(C)[C@@H]1[C@H](O)C[C@@H]1[C@@]3(C)CC[C@H](O)C(C)(C)[C@@H]3[C@@H](O)C[C@]12C` [GINSENOSIDE F5] were, in that order, 102% and 92.8%.
On to `CC(C)=CCC[C@](C)(O[C@@H]1O[C@H](CO[C@@H]2OC[C@H](O)[C@H](O)[C@H]2O)[C@@H](O)[C@H](O)[C@H]1O)[C@H]1CC[C@]2(C)[C@@H]1[C@H](O)C[C@@H]1[C@@]3(C)CC[C@H](O[C@@H]4O[C@H](CO)[C@@H](O)[C@H](O)[C@H]4O[C@@H]4O[C@H](CO)[C@@H](O)[C@H](O)[C@H]4O)C(C)(C)[C@@H]3CC[C@]12C` [GINSENOSIDE RB2], for which the values for the viability at 100 µM with U-251 [2] and in the experiment with C6 [4] were 77.5% and 80.9%, respectively.
The corresponding values for `CC(C)=CCC[C@](C)(O[C@@H]1O[C@H](CO[C@@H]2OC[C@H](O)[C@H](O)[C@H]2O)[C@@H](O)[C@H](O)[C@H]1O)[C@H]1CC[C@]2(C)[C@@H]1[C@H](O)C[C@@H]1[C@@]3(C)CC[C@H](O)C(C)(C)[C@@H]3[C@@H](O)C[C@]12C` [GINSENOSIDE F3] are 104% and 93.6%.
As for `CC(C)=CCC[C@](C)(O[C@@H]1O[C@H](CO)[C@@H](O)[C@H](O)[C@H]1O)[C@H]1CC[C@]2(C)[C@@H]1[C@H](O)C[C@@H]1[C@@]3(C)CC[C@H](O[C@@H]4O[C@H](CO)[C@@H](O)[C@H](O)[C@H]4O[C@@H]4O[C@H](CO)[C@@H](O)[C@H](O)[C@H]4O)C(C)(C)[C@@H]3[C@@H](O)C[C@]12C`, the figures for the viability at 100 µM in the experiment on U-251 [2] and with C6 [4] were 94.5% and 97.5%, respectively.
On to `O=C(/C=C/c1ccc(O)c(O)c1)O[C@H]1[C@H](O)C[C@](O)(C(=O)O)C[C@H]1OC(=O)/C=C/c1ccc(O)c(O)c1`, for which the viability at 100 µM worked out at 119% in the experiment with U-251 [2] and 46% with C6 [4].
The corresponding values for `CC1(C)CC[C@]2(C(=O)O)[C@H](O)C[C@]3(C)C(=CC[C@@H]4[C@@]5(C)CC[C@H](O)C(C)(C)[C@@H]5CC[C@]43C)[C@H]2C1` [ECHINOCYSTIC ACID] are 33.7% and 52.3%.
The corresponding values for `CC(C)=CCC[C@@](C)(O)[C@H]1CC[C@]2(C)[C@@H]1[C@H](O)C[C@@H]1[C@@]3(C)CC[C@H](O[C@@H]4O[C@H](CO)[C@@H](O)[C@H](O)[C@H]4O[C@@H]4O[C@H](CO)[C@@H](O)[C@H](O)[C@H]4O)C(C)(C)[C@@H]3CC[C@]12C` are 77.5% and 97.2%.
The like results for `CC(C)=CCC[C@](C)(O)[C@H]1CC[C@]2(C)[C@@H]1[C@H](O)C[C@@H]1[C@@]3(C)CC[C@H](O[C@@H]4O[C@H](CO)[C@@H](O)[C@H](O)[C@H]4O[C@@H]4O[C@H](CO)[C@@H](O)[C@H](O)[C@H]4O)C(C)(C)[C@@H]3CC[C@]12C` were, in that order, 99.1% and 53.1%.
As for `CC(C)=CCC[C@](C)(O[C@@H]1O[C@H](CO[C@@H]2OC[C@@H](O)[C@H](O)[C@H]2O)[C@@H](O)[C@H](O)[C@H]1O)[C@H]1CC[C@]2(C)[C@@H]1[C@H](O)C[C@@H]1[C@@]3(C)CC[C@H](O[C@@H]4O[C@H](CO)[C@@H](O)[C@H](O)[C@H]4O[C@@H]4O[C@H](CO)[C@@H](O)[C@H](O)[C@H]4O)C(C)(C)[C@@H]3CC[C@]12C` [GINSENOSIDE RB3], the values for the viability at 100 µM in the experiment with U-251 [2] and with C6 [4] were 95.1% and 57.8%, respectively.
The like results for `CC(C)=CCC[C@](C)(O[C@@H]1O[C@H](CO)[C@@H](O)[C@H](O)[C@H]1O)[C@H]1CC[C@]2(C)[C@@H]1[C@H](O)C[C@@H]1[C@@]3(C)CC[C@H](O)C(C)(C)[C@@H]3[C@@H](O)C[C@]12C` [GINSENOSIDE F1] were, in that order, 80.9% and 92%.
